Columns and labels:
[1] = tested on: fecal suspension from the selected donor; test: Intestinal batch fermentation, SCFA production (first set); format: cell-based, human; conditions: after 48 h fermentation, vs corresponding control
Protocol: In a first set of in vitro experiments at the start of intestinal batch fermentation incubation, all test ingredients were added from stock solutions to the modified nutritional medium, containing (g/l): 2.5 K2HPO4, 10.9 KH2PO4, 2 NaHCO3, 2 yeast extract, 2 peptone, 1 mucin, 0.5 cysteine, 2 Tween 80, 2 glucose, 2 starch, 2 cellobiose, 0.1 NaCl, 0.01 MgSO4·7H2O, 0.01 CaCl2·6H2O, 0.05 hemin, 0.5 bile salts.
The other compounds were prepared in ethanol: • Vitamin K1 (VK1), • MEG-3 0080 EE Oil (MEG-3 0080 EE), • MEG-3 4535 EE Oil (MEG-3 4535 EE), • MEG-3 8000 EE Oil (MEG-3 8000 EE).
(§1) Since ethanol is known to have antimicrobial effects, two blanks for each type of stock solution were included. As a source of the microbial community, a freshly prepared fecal suspension from the selected donor was added to the reactors. […] All tests, except the blanks, were performed in single repetition, resulting in 40 independent incubations, as specified in Table 1. Incubation conditions of the pre-screening experiment and the final experiment were 48 h at 37° C., under shaking (90 rpm) and anaerobic conditions. DNA were extracted from effluent samples collected from each fermentation flask before (0 h fermentation) and after fermentation (24 h fermentation) and use for microbiome composition analysis by Shotgun sequencing. Effluent samples were collected from each fermentation flask before (0 h fermentation) and after fermentation (48 h fermentation), sterilized by filtering through 0.22 μm filters and used for short chain fatty acids (SCFA), quantification of immunological biomarkers and in vitro analysis in cell culture systems.
Short chain fatty acids (SCFA) are an assessment of the microbial carbohydrate metabolism (acetate, propionate and butyrate) or protein metabolism (branched SCFA) and can be compared to typical fermentation patterns for normal GI microbiota. Samples for SCFA analysis were analyzed after 0, 6, 24 and 48 h of incubation for both set of in vitro experiments, above.
SCFA were extracted from the samples with diethyl ether, after the addition of 2-methyl hexanoic acid as an internal standard. Extracts were analysed using a GC-2014 gas chromatograph (Shimadzu's-Hertogenbosch, the Nether-lands), equipped with a capillary fatty acid-free EC-1000Econo-Cap column (dimensions: […]×0.53 mm, film thickness […]; Alltech, Laarne, Belgium), a flame ionization detector and a split injector. The injection volume was […] and the temperature profile was set from 110 to 160° C., with a temperature increase of 6° C. min-1. The carrier gas was nitrogen and the temperature of the injector and detector were […] and 220° C., respectively. The production of unbranched and branched SCFA was calculated by summing the molar concentrations of acetate, propionate, butyrate, valerate and caproate, and summing isobutyrate, isovalerate and isocaproate molar concentrations, respectively. The total SCFA production was defined as the sum of unbranched and branched SCFA.

[2] = tested on: Co-cultures of Caco-2 and HT29-MTX-E12 cells; test: Barrier integrity, leaky gut model, apical stressor Rhamnolipids; format: cell-based; conditions: vs corresponding control; for Lucifer yellow, apical induction of leaky gut cellular model: 48 h fermentation samples; for TEER, apical induction of leaky gut cellular model: 48 h minus 0 h fermentation samples
Protocol: Since ethanol is known to have antimicrobial effects, two blanks for each type of stock solution were included. As a source of the microbial community, a freshly prepared fecal suspension from the selected donor was added to the reactors. […] All tests, except the blanks, were performed in single repetition, resulting in 40 independent incubations, as specified in Table 1. Incubation conditions of the pre-screening experiment and the final experiment were 48 h at 37° C., under shaking (90 rpm) and anaerobic conditions. […] Effluent samples were collected from each fermentation flask before (0 h fermentation) and after fermentation (48 h fermentation), sterilized by filtering through 0.22 μm filters and used for short chain fatty acids (SCFA), quantification of immunological biomarkers and in vitro analysis in cell culture systems.
Co-cultures of Caco-2 and HT29-MTX-E12 cells were used to assess the protective effect of the supernatants before (0 h) and after fermentation (48 h) for both sets of in vitro experiments above.
CaCo-2 ECACC 86010202 and HT29-MTX-E12 ECACC 12040401 cells (both from European Collection of Cell Cultures, Salisbury, UK) were both cultured at 37° C., in atmosphere of 5% CO2 in DMEM medium supplemented with 4.5 g/L D-Glucose, 4 mM L-Glutamine, 1 mM Sodium Pyruvate, 1% MEM Non-Essential Amino Acids, 50 μg/mL Gentamicin (Life Technologies Europe B.V., Zug, Switzerland) and 10% heat-inactivated FBS (Sigma-Aldrich, Buchs, Switzerland). Sub-confluent cells were trypsinized using 0.25% Trypsin/EDTA (Life Technologies Europe B.V., Zug, Switzerland) and passaged at a ratio of 1:5-1:10 twice a week. Cells between passages 55 and 85 were used for this study.
Cells were seeded at a density of 20000 cells/well in a 7:3 ratio (Caco-2:HT29-MTX-E12) in Corning HTS Transwell-24 system PET membranes, 0.4 μM pore size, cell growth area 0.33 cm2/well (Corning BV, Amsterdam, Netherlands) and cultured as described above. Media was changed every second to third day.
For both sets of in vitro experiments, the integrity of cell monolayers after the stressor test was evaluated by both TEER values and by measuring the transport of Lucifer yellow from apical to basolateral compartments (Leaky gut model). A prewarmed HBSS transport buffer composed of Hank's Balanced Salt Solution pH 7.4 with Ca2+ and Mg2+, containing 5.5 mM D-(+)-glucose, Sodium Bicarbonate, and supplemented with 4 mM L-glutamine, 20 mM HEPES (Life Technologies Europe B.V., Zug, Switzerland) was used for all permeability experiments. The inserts were rinsed twice with HBSS using a reservoir tray, 100 μl HBSS were then added to the apical site of the inserts and subsequently moved to new wells with fresh HBSS and allowed to equilibrate at 37° C. for 60 min in the incubator followed by TEER measurement to obtain baseline resistance readings.
Lucifer Yellow CH dilithium salt (Sigma-Aldrich, Buchs, Switzerland) was dissolved in HBSS at a final concentration of 100 μg/ml. Basolateral stressor EtOH (Merck, KgaA, Darmstadt, Germany) was diluted to 5% in HBSS. Apical Stressor Rhamnolipids R90 (AGAE Technologies, Corvallis, USA) was dissolved in HBSS containing Lucifer Yellow at a final concentration of 350 μg/ml. All solutions were prepared freshly each time.
The HBSS transport buffer from the basolateral chamber was aspirated first, then the HBSS from the apical chamber and replaced with Lucifer yellow solution. For the apical stressor test, Lucifer yellow solution containing 350 μg/ml Rhamnolipids or Lucifer yellow solution without stressor for the control wells was loaded into the apical compartment, blank HBSS was subsequently added to the basolateral chamber.

[3] = tested on: fecal microbial community; test: Microbiome composition by shotgun sequencing: alpha diversity (first set); format: cell-based, human; conditions: after 24 h fermentation, vs corresponding control
Protocol: as §1
(§2) For the first set of in vitro experiments, total DNA was extracted from all samples collected throughout the study using the QIAamp DNA stool minikit (Qiagen, Crawley, United Kingdom) according to the manufacturer's instructions, apart from addition of a bead-beating step and increasing the lysis temperature to 95° C. as described previously (McCormack et al., 2018).
(§3) After DNA isolation, DNA was quantified using the Qubit High Sensitivity DNA assay (Thermo Fisher). Whole metagenome libraries were then prepared using the Illumina Nextera XT kit (Illumina) in accordance with the manufacturer's instructions, with the following modifications: Firstly, tagmentation time was increased to 7 min and secondly, following incorporation of indices and Ampure purification of the products, the samples were each individually sized by running on an Agilent High Sensitivity Chip (Agilent) and quantified using the Qubit High Sensitivity DNA assay (Thermo Fisher) in accordance with Teagasc Sequencing Platform SOPs. The samples were then pooled equimolarly and sequenced on the Illumina NextSeq 500 with a NextSeq 500/550 v2 high-output reagent kit (300 cycles). All sequencing was done in the Teagasc sequencing facility in accordance with standard Illumina sequencing protocols.
(§4) Delivered raw FASTQ sequence files were quality checked as follows: poor quality and duplicate read removal, as well as trimming was implemented using a combination of SAM and Picard tools. Taxonomy was assigned to the reads using the Kraken software and functional analysis was performed with Super focus.

Bifidobacterium = test: Microbiome composition by shotgun sequencing: Bifidobacterium (first set); format: cell-based, human; conditions: after 24 h fermentation, vs corresponding control
Protocol: as §1, §2, §3, §4

[4] = tested on: genes involved in Acetyl-CoA fermentation to Butyrate pathway; test: Shotgun sequencing functional analysis: butyrate pathway genes (first set); format: cell-based, human; conditions: after 24 h fermentation, vs corresponding control
Protocol: as §1, §2, §3, §4

HT29 cells = test: HT29 cell culture, quantification of immunological biomarkers; format: cell-based; conditions: effluent from 24 h fermentation, vs corresponding control
Protocol: as §1, with “([…]), […]” for “(0 h fermentation) and after fermentation (48 h fermentation), sterilized by filtering through 0.22 μm filters and used for short chain fatty acids (SCFA), quantification of immunological biomarkers and in vitro analysis in”
For both sets of in vitro experiments, HT29 cells were obtained from American Type Culture Collection (Manassas, VA). Cells were cultured in DMEM supplemented with 10% fetal bovine serum (FBS), 50 units/ml penicillin, 50 μg/ml streptomycin, L-glutamine, and nonessential amino acids (Life Technologies Europe B.V., Zug, Switzerland). Cells were seeded into 12-well plates at 8×10^5 cells per well and used after 2 days of preculture. They were starved in DMEM containing 0.25% FBS for 18 h before treatment. Cells were treated for 24 hours with TNF-α at 100 ng/mL or fermentation supernatants which were sterile filtered and diluted 1:20 in DMEM containing 0.25% FBS. All treatments were done in triplicate. Consequently, cytokines, chemokines and interleukins were quantified in HT29 supernatants using the Luminex Technology (LiquiChip Workstation IS 200, Qiagen, Hilden, Germany) with Bio-Plex Pro Human Cytokine Panel kits (Bio-Rad, Hercules, CA) or with Luminex Screening Assay kits (R&D Systems, Inc., Minneapolis, MN), following the manufacturer's instructions. The data were acquired with the Luminex IS 2.3 software and evaluated with the LiquiChip Analyser software (Qiagen, Hilden, Germany).

CC1=C(C/C=C(\C)CCC[C@H](C)CCC[C@H](C)CCCC(C)C)C(=O)c2ccccc2C1=O [Vitamin K1] was tested, and the acetate production ([1]; 0.2× dose) was “increase acetate production”, the butyrate production ([1]; 0.2× dose) was “increase butyrate production” and the propionate production ([1]; 0.2× dose) was “increase propionate production”. For the same compound, the “total SCFAs production” value ([1]; 0.2× dose) was “increase total SCFAs production”, the acetate production ([1]; 1× dose) was “increase acetate production” and the butyrate production ([1]; 1× dose) was “increase butyrate production”. The propionate production ([1]; 1× dose) was “increase propionate production”, the “total SCFAs production” value ([1]; 1× dose) was “increase total SCFAs production” and the acetate production ([1]; 5× dose) was “increase acetate production”. For the same compound, the butyrate production ([1]; 5× dose) was “increase butyrate production”, the propionate production ([1]; 5× dose) was “increase propionate production” and the “total SCFAs production” value ([1]; 5× dose) was “increase total SCFAs production”. The “Lucifer yellow, apical induction of leaky gut cellular model” value (“Lucifer yellow, apical induction” below) ([2]; 0.2× dose) was “decrease Lucifer yellow”, the “microbiome alpha diversity (Shannon diversity index)” value ([3]; 0.2× dose) was “increase microbiome diversity” and the “microbiome alpha diversity (Shannon diversity index)” value ([3]; 1× dose) was “increase microbiome diversity”. For the same compound, the “microbiome alpha diversity (Shannon diversity index)” value ([3]; 5× dose) was “increase microbiome diversity”, the Bifidobacterium relative abundance (Bifidobacterium; 0.2× dose) was “increase Bifidobacterium relative abundance” and the “relative abundance of genes involved in Acetyl-CoA fermentation to Butyrate pathway” value (“relative abundance of genes involved” below) ([4]; 0.2× dose) was “increase relative abundance”. For the same compound, the “relative abundance of genes involved” value ([4]; 1× dose) was “increase relative abundance”, the “relative abundance of genes involved” value ([4]; 5× dose) was “increase relative abundance” and the “IL-8 production by HT29 cells” value (HT29 cells; 0.2× dose) was “increase IL-8 production”. The “MIP3A-CCL20 production by HT29 cells” value (HT29 cells; 0.2× dose) was “increase MIP3A-CCL20 production”, the “MIP3A-CCL20 production by HT29 cells” value (HT29 cells; 1× dose) was “increase MIP3A-CCL20 production” and the “MIP3A-CCL20 production by HT29 cells” value (HT29 cells; 5× dose) was “increase MIP3A-CCL20 production”.
With Nc1nc2ncc(CNc3ccc(C(=O)N[C@@H](CCC(=O)O)C(=O)O)cc3)nc2c(=O)[nH]1 [folic acid, Folic acid] the acetate production ([1]; 0.2× dose) was “increase acetate production”, the butyrate production ([1]; 0.2× dose) was “increase butyrate production” and the propionate production ([1]; 0.2× dose) was “increase propionate production”. The “total SCFAs production” value ([1]; 0.2× dose) was “increase total SCFAs production”, the acetate production ([1]; 1× dose) was “increase acetate production” and the butyrate production ([1]; 1× dose) was “increase butyrate production”. The propionate production ([1]; 1× dose) was “increase propionate production”, the “total SCFAs production” value ([1]; 1× dose) was “increase total SCFAs production” and the acetate production ([1]; 5× dose) was “increase acetate production”. For the same compound, the butyrate production ([1]; 5× dose) was “increase butyrate production”, the propionate production ([1]; 5× dose) was “increase propionate production” and the “total SCFAs production” value ([1]; 5× dose) was “increase total SCFAs production”. For the same compound, the “TEER, apical induction of leaky gut cellular model” value (from here on “TEER, apical induction”) ([2]; 0.2× dose) was “increase TEER”, the “TEER, apical induction” value ([2]; 1× dose) was “increase TEER” and the “microbiome alpha diversity (Shannon diversity index)” value ([3]; 0.2× dose) was “increase microbiome diversity”. The “microbiome alpha diversity (Shannon diversity index)” value ([3]; 1× dose) was “increase microbiome diversity”, the Bifidobacterium relative abundance (Bifidobacterium; 0.2× dose) was “increase Bifidobacterium relative abundance” and the Bifidobacterium relative abundance (Bifidobacterium; 1× dose) was “increase Bifidobacterium relative abundance”. The “relative abundance of genes involved” value ([4]; 0.2× dose) was “increase relative abundance”, the “IL-8 production by HT29 cells” value (HT29 cells; 0.2× dose) was “increase IL-8 production” and the “IL-8 production by HT29 cells” value (HT29 cells; 5× dose) was “increase IL-8 production”.
CC(=O)OC/C=C(C)/C=C/C=C(C)/C=C/C1=C(C)CCCC1(C)C [Vitamin A] was tested, and the butyrate production ([1]; 0.2× dose) was “increase butyrate production”, the propionate production ([1]; 0.2× dose) was “increase propionate production” and the “total SCFAs production” value ([1]; 0.2× dose) was “increase total SCFAs production”. The acetate production ([1]; 1× dose) was “increase acetate production”, the butyrate production ([1]; 1× dose) was “increase butyrate production” and the propionate production ([1]; 1× dose) was “increase propionate production”. The butyrate production ([1]; 5× dose) was “increase butyrate production”, the propionate production ([1]; 5× dose) was “increase propionate production” and the “total SCFAs production” value ([1]; 5× dose) was “increase total SCFAs production”. The “TEER, apical induction” value ([2]; 0.2× dose) was “increase TEER”, the “Lucifer yellow, apical induction” value ([2]; 1× dose) was “decrease Lucifer yellow” and the “TEER, apical induction” value ([2]; 1× dose) was “increase TEER”. For the same compound, the “Lucifer yellow, apical induction” value ([2]; 5× dose) was “decrease Lucifer yellow”, the “TEER, apical induction” value ([2]; 5× dose) was “increase TEER” and the “microbiome alpha diversity (Shannon diversity index)” value ([3]; 1× dose) was “increase microbiome diversity”. For the same compound, the “microbiome alpha diversity (Shannon diversity index)” value ([3]; 5× dose) was “increase microbiome diversity”, the Bifidobacterium relative abundance (Bifidobacterium; 1× dose) was “increase Bifidobacterium relative abundance” and the “relative abundance of genes involved” value ([4]; 1× dose) was “increase relative abundance”. The “relative abundance of genes involved” value ([4]; 5× dose) was “increase relative abundance”, the “IL-8 production by HT29 cells” value (HT29 cells; 0.2× dose) was “increase IL-8 production” and the “MIP3A-CCL20 production by HT29 cells” value (HT29 cells; 0.2× dose) was “increase MIP3A-CCL20 production”. The “MIP3A-CCL20 production by HT29 cells” value (HT29 cells; 1× dose) was “increase MIP3A-CCL20 production”, the “IL-8 production by HT29 cells” value (HT29 cells; 5× dose) was “increase IL-8 production” and the “MIP3A-CCL20 production by HT29 cells” value (HT29 cells; 5× dose) was “increase MIP3A-CCL20 production”.

Reference: US12508280B2, “Formulations for improving gut health” (DSM IP ASSETS B.V., priority 2018, dated 2025)
